Columns and labels:
[1] = Hypoglycemic potency (United States Pharmacopeia method); type: in vivo; settings: USP Vol. 18 hypoglycemic potency assay; relative to unmodified insulin
Procedure: Hypoglycemic potency of the modified insulin was measured as described in "The United States Pharmacopeia", Mark Publishing Co., Vol. 18, pp. 883-884 (1964). Bioactivity was 62% as compared to unmodified insulin.

[2] = Aggregation tendency by turbidity of the solution (absorbance at 400 nm); type: physicochemical; settings: 0 to 0.1 A non-aggregated, above 0.3 aggregated
Procedure: The tendency of modified insulin to aggregate was assessed by measuring the turbidity of the solution. This method is based on the work of Leach and Scheraga (S. J. Leach and H. A. Scheraga (1964) J. Amer. Chem. Soc. 82, 4790-4792) who stated that absorbancy observed in insulin solutions between 350 and 600 nm is due to light scattering of aggregated particles. […] After deaeration under vacuo for 60 min. 1 ml of this solution was diluted with 1 ml of PBS, and the turbidity was measured on a Hewlett Packard spectrophotometer type HP 8590, utilizing as a blank a non-aggregated sample diluted by 1 volume of 8M guanidine hydrochloride. Aggregation was measured by the difference in absorbance determined at 400 nm for the two samples. Non-aggregated samples gave absorbance values of 0 to 0.1 Absorbance Unit(A), Values above 0.3 were considered to be aggregated.

Q: For “Example 1: porcine sodium insulin sulphated with sulfuric acid and N,N' dicyclohexyl carbodiimide in dimethylformamide”, which “Bioactivity (hypoglycemic potency) as compared to unmodified insulin” value [1] is on record?
A: 62%

Q: And the “Turbidity (difference in absorbance at 400 nm)” value ([2]; dissolved in PBS, passed 50 times through syringe with 26G needle, blank in guanidine hydrochloride)?
A: 0.08 A

Q: Which “Bioactivity (hypoglycemic potency) as compared to unmodified insulin” value [1] does the source give for “Example 4: porcine sodium insulin phosphorylated with concentrated phosphoric acid and DCC in DMF” here?
A: 85%

Q: Which “Turbidity (absorbance at 400 nm)” value ([2]; dissolved in distilled water, treated by the same procedure) does the source give for “unmodified porcine sodium insulin: unmodified porcine sodium insulin, starting material and comparator [reference compound]” here?
A: 0.51 A

Reference: patent US4534894A, “Process for sulphation and phosphorylation of proteins and peptides” (The Rockefeller University, priority 1982, dated 1985)
